Reference: US4720543A, “1a-7-substituted derivatives of mitomycin and uses thereof” (priority 1985, dated 1988)

Columns and labels:
Klebsiella Pneumonia = assay: antibiotic activity, bacterial growth inhibition in culture; assay type: cell-based
Procedure: (§1) Bacteria were grown in a standard growth culture at pH 7.2. After the cultures were incubated at 37° C. overnight and diluted into fresh medium, controls and the test antibiotics dissolved in 0.3% hydroxy propylcellulose (HPC) were added at various concentrations and then reincubated overnight. The measure of antibiotic activity was determined by the amount of bacterial growth inhibition as shown by measurement of the optical density at 660 nm.

Listeria Sp. = assay: as above; assay type: cell-based
Procedure: as §1

Pseudomonas Sp. = assay: as above; assay type: cell-based
Procedure: as §1

Staphylococcus Sp. = assay: as above; assay type: cell-based
Procedure: as §1

W3100 (E. coli) = assay: as above; assay type: cell-based
Procedure: as §1

WP2s (E. coli) = assay: as above; assay type: cell-based
Procedure: as §1

P388 leukemia = assay: murine P388 leukemia antitumor activity; assay type: in vivo; settings: approximate LD10 dose (M-TAG 250 mg/kg; mitomycin C 4 mg/kg), day one
Procedure: The murine P388 leukemia system, maintained intraperitoneally in female DBA/2 mice, was used to evaluate antitumor activity.
The P388 antileukemic activity of the test compound (M-TAG) was assessed by mean survival days, percentage increased life span or %ILS, and number of survivors after 45 days. The %ILS was calculated as follows:
%ILS=(T-C)/C×100 where T is the mean survival days of the treated mice and C is the mean survival days of the untreated mice

Ehrlich ascites = assay: murine Ehrlich ascites antitumor activity; assay type: in vivo
Procedure: The antitumor activity of M-TAG for the murine Ehrlich ascities tumor was also determined. Ehrlich ascites was maintained i.p. in female BALB/C mice. For antitumor studies, 1×10^7 Ehrlich ascites cells (in 0.10 ml) were implanted i.p. in male BD2F1 mice. Drug was administered i.p. (single LD10 dose) one day after tumor implantation.

[1] = tested on: peripheral leukocyte (WBC); assay: effects on peripheral leukocyte (WBC) count; assay type: in vivo, mice
Procedure: Comparative studies were performed with M-TAG and mitomycin C. Drug was dissolved in absolute ethanol, and then adjusted to a final concentration of 8% ethanol-92% sterile water. Blood samples obtained were diluted in 9.98 ml of Isoton (a neutral isotonic buffer solution) and counted in a Coulter counter after lysis with Zapoglobin (an enzyme solution which lyses red blood cells but not white blood cells). WBC counts are expressed as a percentage of values from control mice receiving drug vehicle only.

in vitro = settings: human, bone marrow cells
Procedure: The human bone marrow CFU-C assay measures human bone marrow cells committed to granulocyte-macrophage differentiation. This in vitro assay serves as a model for predicting the relative toxicity of an experimental drug on the granulocytic series of the bone marrow. […] Both drugs were dissolved in 0.5% DMSO, and nucleated human bone marrow cells were exposed in vitro (for 90 minutes at 37° C.) to varying concentrations of each drug. The cells were then plated in triplicate in 3% agar for the CFU-C assay, using GCT, (Giant Cell Tumor) extract (Gibco, Grand Island, N.Y.) as colony-stimulating factor.

bone marrow = settings: mice, rats, cats, dogs, and rhesus monkeys; cited from earlier work
B16 melanoma = assay: murine B16 melanoma antitumor activity; settings: M-TAG 250 mg/kg or mitomycin C 4 mg/kg, i.p. day 1
Text: Activity against the murine B16 melanoma is currently being determined.

[2] = toxic single doses in normal CD2F1 mice
Procedure: Drug was administered intraperitoneally (i.p.) in a volume of 0.1 ml per 10 grams body weight.

[3] = Escherichia coli, 0.04 mcg/ml, 37° C. overnight, read-out: amount of bacterial growth inhibition (first figure)
[4] = Escherichia coli, 0.4 mcg/ml, 37° C. overnight, read-out: amount of bacterial growth inhibition (first figure)
[5] = Escherichia coli, 4.0 mcg/ml, 37° C. overnight, read-out: amount of bacterial growth inhibition (first figure)
[6] = Escherichia coli, 40 mcg/ml, 37° C. overnight, read-out: amount of bacterial growth inhibition (first figure)
[7] = Escherichia coli, 400 mcg/ml, 37° C. overnight, read-out: amount of bacterial growth inhibition (first figure)

Q: Which “optical density at 660 nm (figure in parentheses)” value (shortened to “optical density at 660 nm”) (Klebsiella Pneumonia; 0.04 mcg/ml) does the source give for `CO[C@@]12[C@H](COC(N)=O)C3=C(C(=O)C(C)=C(N)C3=O)N1C[C@@H]1N[C@@H]12` [Mitomycin C, mitomycin C, reference compound] here?
A: 0.52

Q: What about the “optical density at 660 nm” value (Klebsiella Pneumonia; 0.4 mcg/ml) of the same compound?
A: 0.086

Q: What about the “optical density at 660 nm” value (Klebsiella Pneumonia; 4.0 mcg/ml) of the same compound?
A: 0.06

Q: What about the “optical density at 660 nm” value (Klebsiella Pneumonia; 400 mcg/ml) of the same compound?
A: 0.13

Q: And the inhibition at 0.04 µg/mL (Klebsiella Pneumonia; Klebsiella pneumoniae, 0.04 mcg/ml, 37° C. overnight, read-out: amount of bacterial growth inhibition (first figure))?
A: 30%

Q: What about the inhibition at 0.4 µg/mL (Klebsiella Pneumonia; Klebsiella pneumoniae, 0.4 mcg/ml, 37° C. overnight, read-out: amount of bacterial growth inhibition (first figure)) of the same compound?
A: 82%

Q: And the inhibition at 4 µg/mL (Klebsiella Pneumonia; Klebsiella pneumoniae, 4.0 mcg/ml, 37° C. overnight, read-out: amount of bacterial growth inhibition (first figure))?
A: 87%

Q: What about the inhibition at 40 µg/mL (Klebsiella Pneumonia; Klebsiella pneumoniae, 40 mcg/ml, 37° C. overnight, read-out: amount of bacterial growth inhibition (first figure)) of the same compound?
A: 85%

Q: And the inhibition at 400 µg/mL (Klebsiella Pneumonia; Klebsiella pneumoniae, 400 mcg/ml, 37° C. overnight, read-out: amount of bacterial growth inhibition (first figure))?
A: 75%

Q: What about the “optical density at 660 nm” value (Listeria Sp.; 0.4 mcg/ml) of the same compound?
A: 0.13

Q: What about the “optical density at 660 nm” value (Listeria Sp.; 4.0 mcg/ml) of the same compound?
A: 0.03

Q: And the “optical density at 660 nm” value (Listeria Sp.; 40 mcg/ml)?
A: 0.018

Q: And the “optical density at 660 nm” value (Listeria Sp.; 400 mcg/ml)?
A: 0.018

Q: And the inhibition at 0.04 µg/mL (Listeria Sp.; Listeria, 0.04 mcg/ml, 37° C. overnight, read-out: amount of bacterial growth inhibition (first figure))?
A: 85%

Q: What about the inhibition at 0.4 µg/mL (Listeria Sp.; Listeria, 0.4 mcg/ml, 37° C. overnight, read-out: amount of bacterial growth inhibition (first figure)) of the same compound?
A: 95%

Q: What about the inhibition at 4 µg/mL (Listeria Sp.; Listeria, 4.0 mcg/ml, 37° C. overnight, read-out: amount of bacterial growth inhibition (first figure)) of the same compound?
A: 93%

Q: And the inhibition at 40 µg/mL (Listeria Sp.; Listeria, 40 mcg/ml, 37° C. overnight, read-out: amount of bacterial growth inhibition (first figure))?
A: 96%

Q: What about the inhibition at 400 µg/mL (Listeria Sp.; Listeria, 400 mcg/ml, 37° C. overnight, read-out: amount of bacterial growth inhibition (first figure)) of the same compound?
A: 96%

Q: What about the “optical density at 660 nm” value (Pseudomonas Sp.; 0.04 mcg/ml) of the same compound?
A: 0.11

Q: What about the “optical density at 660 nm” value (Pseudomonas Sp.; 0.4 mcg/ml) of the same compound?
A: 0.11

Q: What about the “optical density at 660 nm” value (Pseudomonas Sp.; 4.0 mcg/ml) of the same compound?
A: 0.11

Q: And the “optical density at 660 nm” value (Pseudomonas Sp.; 40 mcg/ml)?
A: 0.14

Q: What about the “optical density at 660 nm” value (Pseudomonas Sp.; 400 mcg/ml) of the same compound?
A: 0.15

Q: What about the inhibition at 0.04 µg/mL (Pseudomonas Sp.; Pseudomonas, 0.04 mcg/ml, 37° C. overnight, read-out: amount of bacterial growth inhibition (first figure)) of the same compound?
A: 78%

Q: And the inhibition at 0.4 µg/mL (Pseudomonas Sp.; Pseudomonas, 0.4 mcg/ml, 37° C. overnight, read-out: amount of bacterial growth inhibition (first figure))?
A: 78%

Q: What about the inhibition at 4 µg/mL (Pseudomonas Sp.; Pseudomonas, 4.0 mcg/ml, 37° C. overnight, read-out: amount of bacterial growth inhibition (first figure)) of the same compound?
A: 78%

Q: What about the inhibition at 40 µg/mL (Pseudomonas Sp.; Pseudomonas, 40 mcg/ml, 37° C. overnight, read-out: amount of bacterial growth inhibition (first figure)) of the same compound?
A: 72%

Q: What about the inhibition at 400 µg/mL (Pseudomonas Sp.; Pseudomonas, 400 mcg/ml, 37° C. overnight, read-out: amount of bacterial growth inhibition (first figure)) of the same compound?
A: 71%

Q: What about the “optical density at 660 nm” value (Staphylococcus Sp.; 0.04 mcg/ml) of the same compound?
A: 0.52

Q: What about the “optical density at 660 nm” value (Staphylococcus Sp.; 0.4 mcg/ml) of the same compound?
A: 0.03

Q: What about the “optical density at 660 nm” value (Staphylococcus Sp.; 4.0 mcg/ml) of the same compound?
A: 0.03

Q: And the “optical density at 660 nm” value (Staphylococcus Sp.; 40 mcg/ml)?
A: 0.041

Q: What about the “optical density at 660 nm” value (Staphylococcus Sp.; 400 mcg/ml) of the same compound?
A: 0.046

Q: What about the inhibition at 0.04 µg/mL (Staphylococcus Sp.; Staphylococcus, 0.04 mcg/ml, 37° C. overnight, read-out: amount of bacterial growth inhibition (first figure)) of the same compound?
A: 30%

Q: And the inhibition at 0.4 µg/mL (Staphylococcus Sp.; Staphylococcus, 0.4 mcg/ml, 37° C. overnight, read-out: amount of bacterial growth inhibition (first figure))?
A: 93%

Q: And the inhibition at 4 µg/mL (Staphylococcus Sp.; Staphylococcus, 4.0 mcg/ml, 37° C. overnight, read-out: amount of bacterial growth inhibition (first figure))?
A: 93%

Q: What about the inhibition at 40 µg/mL (Staphylococcus Sp.; Staphylococcus, 40 mcg/ml, 37° C. overnight, read-out: amount of bacterial growth inhibition (first figure)) of the same compound?
A: 91%

Q: What about the inhibition at 400 µg/mL (Staphylococcus Sp.; Staphylococcus, 400 mcg/ml, 37° C. overnight, read-out: amount of bacterial growth inhibition (first figure)) of the same compound?
A: 90%

Q: And the “optical density at 660 nm” value (W3100 (E. coli); 0.04 mcg/ml)?
A: 0.13

Q: What about the “optical density at 660 nm” value (W3100 (E. coli); 0.4 mcg/ml) of the same compound?
A: 0.051

Q: What about the “optical density at 660 nm” value (W3100 (E. coli); 4.0 mcg/ml) of the same compound?
A: 0.06

Q: What about the inhibition at 0.04 µg/mL (W3100 (E. coli); [3]) of the same compound?
A: 74%

Q: And the inhibition at 0.4 µg/mL (W3100 (E. coli); [4])?
A: 89%

Q: What about the inhibition at 4 µg/mL (W3100 (E. coli); [5]) of the same compound?
A: 88%

Q: What about the inhibition at 40 µg/mL (W3100 (E. coli); [6]) of the same compound?
A: 80%

Q: And the inhibition at 400 µg/mL (W3100 (E. coli); [7])?
A: 80%

Q: What about the “optical density at 660 nm” value (WP2s (E. coli); 0.04 mcg/ml) of the same compound?
A: 0.16

Q: What about the inhibition at 0.04 µg/mL (WP2s (E. coli); [3]) of the same compound?
A: 70%

Q: And the inhibition at 0.4 µg/mL (WP2s (E. coli); [4])?
A: 86%

Q: And the inhibition at 4 µg/mL (WP2s (E. coli); [5])?
A: 84%

Q: What about the inhibition at 40 µg/mL (WP2s (E. coli); [6]) of the same compound?
A: 85%

Q: And the inhibition at 400 µg/mL (WP2s (E. coli); [7])?
A: 85%

Q: What about the “% ILS” value (P388 leukemia) of the same compound?
A: 84%

Q: And the “Mean Survival” value (P388 leukemia)?
A: 21 days

Q: And the “mice alive on Day 30” value (Ehrlich ascites; 4 mg/kg i.p.)?
A: 50%

Q: What about the “% ILS” value (Ehrlich ascites; single approximate LD10 dose i.p. (M-TAG 250 mg/kg; mitomycin C 4 mg/kg), one day after implantation) of the same compound?
A: 82%

Q: And the “WBC nadir, % of the control” value ([1]; 4 mg/kg i.p.)?
A: 76%

Q: And the “WBC depression / myelotoxicity (in words)” value ([1]; LD10-range dose i.p., days 3, 4, 5, 6 and 10)?
A: significantly greater than that produced by an equitoxic dose of M-TAG (P<0.01)

Q: And the “decrease in WBC counts” value ([1]; LD10 dose)?
A: 24%

Q: What about the activity at 1.5 h, 1 µM (in vitro) of the same compound?
A: 30%

Q: What about the activity at 1.5 h, 5 µM (in vitro) of the same compound?
A: 21%

Q: What about the activity at 1.5 h, 10 µM (in vitro) of the same compound?
A: < 10%

Q: And the “toxicity in animals (in words)” value (bone marrow)?
A: severe bone marrow depression and gastrointestinal damage, and were delayed in onset

Q: What about the “mice alive on day 20” value (B16 melanoma) of the same compound?
A: 5 out of 10

Q: What about the “mice alive on day 10” value (B16 melanoma; all vehicle-control mice died) of the same compound?
A: All

Q: What about the “approximate LD10 dose (molar)” value ([2]; single i.p. dose) of the same compound?
A: ~12 µmol/kg

Q: And the LD10 dose ([2]; single i.p. dose toxic to 10% of normal mice)?
A: ~4 mg/kg
